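Cultured in 96-well plates, cells were exposed to test compound for 48 hours across five concentrations. GI50 = concentration required for 50% inhibition of growth.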 The source made the active and inactive calls. No stated cut-off is given here; in the data, active = GI50 up to about 1.1 µM and inactive = higher.
How the values were obtained:
Assay in all cases: inhibition of tumour cell growth, NCI panel, 48 h
[1] = test system: 786-0
[2] = test system: A498
[3] = test system: A549
[4] = test system: ACHN
[5] = test system: BT-549
[6] = test system: CAKI-1
[7] = test system: CCRF-CEM
[8] = test system: COLO 205
[9] = test system: DU-145
[10] = test system: EKVX
[11] = test system: HCC 2998
[12] = test system: HCT-116
[13] = test system: HCT-15
[14] = test system: HL-60
[15] = test system: HOP-62
[16] = test system: HOP-92
[17] = test system: HT-29
[18] = test system: Hs-578T
[19] = test system: IGROV-1
[20] = test system: K562
[21] = test system: KM12
[22] = test system: LOX IMVI
[23] = test system: M14
[24] = test system: MCF7
[25] = test system: MDA-MB-231
[26] = test system: MDA-MB-435
[27] = test system: MDA-N
[28] = test system: MOLT-4
[29] = test system: Malme-3M
[30] = test system: NCI-H226
[31] = test system: NCI-H23
[32] = test system: NCI-H460
[33] = test system: NCI-H522
[34] = test system: NCI/ADR-RES
[35] = test system: OVCAR-3
[36] = test system: OVCAR-4
[37] = test system: OVCAR-5
[38] = test system: OVCAR-8
[39] = test system: PC-3
[40] = test system: RPMI-8226
[41] = test system: RXF 393
[42] = test system: SF-268
[43] = test system: SF-295
[44] = test system: SF-539
[45] = test system: SK-MEL-28
[46] = test system: SK-MEL-2
[47] = test system: SK-MEL-5
[48] = test system: SK-OV-3
[49] = test system: SN12C
[50] = test system: SNB-19
[51] = test system: SNB-75
[52] = test system: SR
[53] = test system: SW-620
[54] = test system: T47D
[55] = test system: TK-10
[56] = test system: U-251
[57] = test system: UACC-257
[58] = test system: UACC-62
[59] = test system: UO-31

SMILES: C=CCn1c2c(c3ccccc3c1=O)C(=O)c1ccccc1-2
- GI50 [1]: 22.4 µM (inactive)
- GI50 [2]: > 100 µM (inactive)
- GI50 [3]: > 100 µM (inactive)
- GI50 [4]: 51.9 µM (inactive)
- GI50 [5]: > 100 µM (inactive)
- GI50 [6]: > 100 µM (inactive)
- GI50 [7]: > 100 µM (inactive)
- GI50 [8]: > 100 µM (inactive)
- GI50 [9]: > 89.3 µM (inactive)
- GI50 [10]: > 100 µM (inactive)
- GI50 [11]: > 100 µM (inactive)
- GI50 [12]: > 26.2 µM (inactive)
- GI50 [13]: > 100 µM
- GI50 [14]: 3.41 µM (inactive)
- GI50 [15]: 31.4 µM (inactive)
- GI50 [16]: > 100 µM (inactive)
- GI50 [17]: > 100 µM (inactive)
- GI50 [18]: > 60.3 µM (inactive)
- GI50 [19]: > 100 µM (inactive)
- GI50 [20]: > 23 µM (inactive)
- GI50 [21]: > 72.9 µM (inactive)
- GI50 [22]: > 100 µM (inactive)
- GI50 [23]: > 100 µM (inactive)
- GI50 [24]: > 100 µM (inactive)
- GI50 [25]: > 85.3 µM (inactive)
- GI50 [26]: > 87.3 µM (inactive)
- GI50 [27]: > 100 µM (inactive)
- GI50 [28]: 3.4 µM (inactive)
- GI50 [29]: > 100 µM (inactive)
- GI50 [30]: > 100 µM (inactive)
- GI50 [31]: > 100 µM (inactive)
- GI50 [32]: 6.28 µM (inactive)
- GI50 [33]: > 100 µM (inactive)
- GI50 [34]: > 100 µM (inactive)
- GI50 [35]: > 100 µM (inactive)
- GI50 [36]: 54.8 µM (inactive)
- GI50 [37]: > 100 µM (inactive)
- GI50 [38]: > 88.9 µM (inactive)
- GI50 [39]: > 100 µM (inactive)
- GI50 [40]: > 25.6 µM (inactive)
- GI50 [41]: 15.9 µM (inactive)
- GI50 [42]: > 68.1 µM (inactive)
- GI50 [43]: > 77.8 µM (inactive)
- GI50 [44]: > 70.6 µM (inactive)
- GI50 [45]: > 100 µM (inactive)
- GI50 [46]: > 100 µM (inactive)
- GI50 [47]: 43.8 µM (inactive)
- GI50 [48]: > 100 µM (inactive)
- GI50 [49]: > 100 µM (inactive)
- GI50 [50]: 73.8 µM (inactive)
- GI50 [51]: > 81.5 µM (inactive)
- GI50 [52]: 3.97 µM (inactive)
- GI50 [53]: 73.6 µM (inactive)
- GI50 [54]: > 100 µM (inactive)
- GI50 [55]: > 50.6 µM (inactive)
- GI50 [56]: 30.8 µM (inactive)
- GI50 [57]: > 100 µM (inactive)
- GI50 [58]: > 78 µM (inactive)
- GI50 [59]: > 100 µM (inactive)
